Measurements taken from ChEMBL document CHEMBL5154927, “Discovery of Novel Bicyclic Phenylselenyl-Containing Hybrids: An Orally Bioavailable, Potential, and Multiacting Class of Estrogen Receptor Modulators against Endocrine-Resistant Breast Cancer” (J Med Chem, 2022).
Calls of active or inactive are those of the source.

Experiments:
LCC2 [1] = experiment: Induction of ROS production in tamoxifen-resistant human LCC2 cells at 1 to 4 uM measured after 48 hrs by DCFH-DA staining based confocal laser scanning microscopic method; format: functional, cell-based; settings: dose 1-4 µM
[2] = AUC in BALB/C mouse at 5 mg/kg, iv by LC-MS/MS analysis; format: ADME, organism-based; parameters: dose 5 mg/kg, route iv; settings: in vivo
LCC2 [3] = experiment: Downregulation of hexokinase-1 expression in tamoxifen-resistant human LCC2 cell outer mitochondrial membrane measured after 24 hrs by Western blot analysis; format: functional; settings: Mitochondria
MCF7 [4] = experiment: Induction of apoptosis in human MCF7 cells assessed as increase in late apoptotic cells at 0.5 to 4 uM incubated for 48 hrs by annexin V-FITC staining based flow cytometry; format: functional, cell-based; settings: dose 0.5-4 µM
MCF7 [5] = experiment: Induction of apoptosis in human MCF7 cells assessed as total apoptotic cells at 0.5 uM incubated for 48 hrs by annexin V-FITC staining based flow cytometry; format: functional
MCF7 [6] = experiment: Antitumor activity against human MCF7 cells xenografted in BALB/C mouse assessed as increase in tumor necrosis area at 20 mg/kg, po […]; format: functional, organism-based
[7] = Half life in BALB/C mouse at 20 mg/kg, po by LC-MS/MS analysis; format: ADME, organism-based; settings: in vivo
[8] = Toxicity in BALB/C mouse xenografted with human MCF7 cells assessed as change in body weight at 10 to 20 mg/kg, po measured every 2 days for 34 days; format: organism-based; settings: in vivo, 816 h, dose 10-20 mg/kg, time 34 day
[9] = target: T1, Hexokinase-1 (Homo sapiens) (UniProt P19367); experiment: Binding affinity to hexokinase-1 in human MCF7 cell lysate measured after overnight incubation by LC-MS/MS analysis; format: subcellular; settings: filed as antagonist, time 14.0 hrs
T1 sequence (whole entry): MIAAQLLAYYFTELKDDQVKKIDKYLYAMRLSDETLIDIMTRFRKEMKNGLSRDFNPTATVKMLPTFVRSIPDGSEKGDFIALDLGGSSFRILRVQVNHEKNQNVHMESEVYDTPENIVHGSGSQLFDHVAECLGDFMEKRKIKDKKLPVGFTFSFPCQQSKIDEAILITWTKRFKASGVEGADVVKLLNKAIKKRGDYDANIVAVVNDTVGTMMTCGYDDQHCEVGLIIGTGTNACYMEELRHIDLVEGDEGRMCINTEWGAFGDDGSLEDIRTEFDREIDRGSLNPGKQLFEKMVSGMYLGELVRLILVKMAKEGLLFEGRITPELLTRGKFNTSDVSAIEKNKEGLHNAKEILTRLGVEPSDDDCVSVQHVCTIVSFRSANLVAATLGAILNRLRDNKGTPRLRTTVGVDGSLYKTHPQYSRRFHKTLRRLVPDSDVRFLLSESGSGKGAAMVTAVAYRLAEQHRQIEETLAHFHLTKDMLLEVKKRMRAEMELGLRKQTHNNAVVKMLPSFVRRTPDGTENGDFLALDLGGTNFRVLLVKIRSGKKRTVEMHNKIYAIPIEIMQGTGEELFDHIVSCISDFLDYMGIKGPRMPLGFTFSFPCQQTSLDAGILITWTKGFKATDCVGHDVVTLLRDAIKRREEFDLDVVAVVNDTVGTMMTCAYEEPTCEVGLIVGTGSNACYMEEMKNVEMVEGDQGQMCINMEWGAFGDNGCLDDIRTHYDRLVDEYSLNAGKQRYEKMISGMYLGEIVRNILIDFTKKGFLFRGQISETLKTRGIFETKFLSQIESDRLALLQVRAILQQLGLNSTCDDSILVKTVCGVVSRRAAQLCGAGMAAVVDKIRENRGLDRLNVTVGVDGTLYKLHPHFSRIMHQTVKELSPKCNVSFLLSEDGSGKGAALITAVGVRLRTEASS

LCC2 [10] = experiment: Induction of mitochondrial membrane potential loss in tamoxifen-resistant human LCC2 cells at 5 to 30 uM incubated for 48 hrs by JC-1 staining based flow cytometry; format: functional, cell-based; settings: dose 5-30 µM
[11] = Toxicity in BALB/C mouse xenografted with human MCF7 cells assessed as mortality at 10 to 20 mg/kg, po measured after 34 days; format: organism-based; settings: in vivo, 816 h, dose 10-20 mg/kg, time 34 day
LCC2 [12] = experiment: Induction of apoptosis in tamoxifen-resistant human LCC2 cells assessed as increase in late apoptotic cells at 5 to 30 uM incubated for 48 hrs by annexin V-FITC staining based flow cytometry; format: functional, cell-based; settings: dose 5-30 µM
MCF7 [13] = experiment: Induction of apoptosis in human MCF7 cells assessed as increase in Bax level at 0.5 to 4 uM incubated for 48 hrs by western blot analysis; format: functional, cell-based; settings: dose 0.5-4 µM
LCC2 [14] = experiment: Induction of apoptosis in tamoxifen-resistant human LCC2 cells assessed as increase in Bax level at 5 to 30 uM incubated for 48 hrs by western blot analysis; format: functional, cell-based; settings: dose 5-30 µM
[15] = Tmax in BALB/C mouse at 20 mg/kg, po by LC-MS/MS analysis; format: ADME, organism-based; settings: in vivo
MCF7 [16] = experiment: Induction of mitochondrial membrane potential loss in human MCF7 cells incubated for 48 hrs by JC-1 staining based flow cytometry; format: functional, cell-based; settings: dose 1-4 µM, DDE = dose-dependent effect
LCC2 [17] = experiment: Induction of apoptosis in tamoxifen-resistant human LCC2 cells at 5 to 30 uM incubated for 48 hrs by annexin V-FITC staining based flow cytometry; format: functional, cell-based; settings: dose 5-30 µM
[18] = Toxicity in BALB/C mouse xenografted with human MCF7 cells assessed as morphological changes in heart at 10 to 20 mg/kg, po by hematoxylin and eosin staining based analysis; format: organism-based; settings: in vivo, dose 10-20 mg/kg
MCF7 [19] = experiment: Downregulation of hexokinase-1 expression in human MCF7 cell mitochondria at 16 uM measured after 24 hrs by DAPI staining based immunofluorescence microscopy; format: functional
LCC2 [20] = experiment: Induction of apoptosis in tamoxifen-resistant human LCC2 cells assessed as decrease in Bcl2 level at 5 to 30 uM incubated for 48 hrs by western blot analysis; format: functional, cell-based; settings: dose 5-30 µM

O=S(=O)(Oc1cccc2ccccc12)C1CC2OC1C(c1ccc([Se]c3ccccc3)cc1)=C2c1ccc(O)cc1 (stereo not given)
9.16%: Activity (MCF7 [5])
active: Activity (LCC2 [1]) | Activity (LCC2 [3]) | Activity (MCF7 [4]) | Activity (MCF7 [6]) | Activity [9] | Activity (LCC2 [10]) | Activity (LCC2 [12]) | Activity (MCF7 [13]) | Activity (LCC2 [14]) | Activity (MCF7 [16]) Dde | Activity (LCC2 [17]) | Activity (MCF7 [19]) | Activity (LCC2 [20])
0.93 h: half-life [7]
Non-Toxic: Activity [8] | Activity [11] | Activity [18]
2 h: Tmax [15]
1550 ng·h/mL: AUC [2]
